Measured values reported in US9695155B2, “Herbicidal substituted pyrimidinyloxy benzene compounds” (E. I. DU PONT DE NEMOURS AND COMPANY, priority 2013, dated 2017).

Experiments:
corn = assay: Test A postemergence; type: in vivo, Zea mays
Outline: (§1)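 Scoring: eye-based comparison with untreated controls, 0 for no effect through 100 for complete control, at about day 10. Treatments: directed soil spray preemergence; foliar spray postemergence on 2–10 cm plants at the one- to two-leaf stage. Medium: loam soil with sand.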

giant foxtail [1] = assay: Test A postemergence; type: in vivo, Setaria faberii
Outline: as §1

Heteranthera limosa = assay: Test B flooded paddy test; type: in vivo; conditions: Flood, 250 g ai/ha; 0 to 100 scale where 0 is no effect and 100 is complete control
Outline: (§2)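 Seedlings are raised to two leaves, flooded to a depth of 3 cm and dosed by adding the compound to the floodwater. Water level is kept constant, and plants are scored visually versus controls 13–15 days later (0 = no effect, 100 = complete control).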

barnyardgrass [2] = assay: Test A postemergence; type: in vivo, Echinochloa crus-galli
Outline: as §1

barnyardgrass [3] = assay: Test B flooded paddy test; type: in vivo, Echinochloa crus-galli; conditions: Flood, 250 g ai/ha; 0 to 100 scale where 0 is no effect and 100 is complete control
Outline: as §2

chickweed = assay: Test C postemergence; type: in vivo, Stellaria media; conditions: for Plant response rating, Chickweed / Chickweed plant response rating: scale 0 to 100 (0 no effect, 100 complete control); for Chickweed plant response rating: 31 g ai/ha
From the text: (§3) Seeds of plant species selected from blackgrass (Alopecurus myosuroides), Italian ryegrass (Lolium multiflorum), wheat, winter (winter wheat, Triticum aestivum), galium (catchweed bedstraw, Galium aparine), corn (Zea mays), large (Lg) crabgrass (Digitaria sanguinalis), giant foxtail (Setaria faberii), johnsongrass (Sorghum halepense), lambsquarters (Chenopodium album), morningglory (Ipomoea coccinea), yellow nutsedge (Cyperus esculentus), pigweed (Amaranthus retroflexus), ragweed (common ragweed, Ambrosia elatior), soybean (Glycine max), barnyardgrass (Echinochloa crus-galli), oilseed rape (Brassica napus), waterhemp (common waterhemp, Amaranthus rudis), kochia (Kochia scoparia), wild oat (Avena fatua), surinam grass (Brachiaria decumbens), foxtail, green (green foxtail, Setaria viridis), goosegrass (Eleusine indica), bromegrass, downy (downy bromegrass, Bromus tectorum), nightshade (eastern black nightshade, Solanum ptycanthum), cocklebur (common cocklebur, Xanthium strumarium), cupgrass, woolly (woolly cupgrass, Eriochloa villosa), bermudagrass (Cynodon dactylon), sunflower, (common oilseed sunflower, Helianthus annuus), Russian thistle (Salsola kali), and velvetleaf (Abutilon theophrasti) were planted into a blend of loam soil and sand and treated preemergence with test chemicals formulated in a non-phytotoxic solvent mixture which included a surfactant.
(§4) At the same time, plants selected from these crop and weed species and also barley, winter (winter barley, Hordeum vulgare), windgrass (Apera spica-venti), chickweed (common chickweed, Stellaria media), deadnettle (henbit deadnettle, Lamium amplexicaule), and canarygrass (littleseed canarygrass, Phalaris minor) were planted in pots containing Redi-Earth® planting medium (Scotts Company, 14111 Scottslawn Road, Marysville, Ohio 43041) comprising spaghnum peat moss, vermiculite, wetting agent and starter nutrients and treated with postemergence applications of test chemicals formulated in the same manner. Plants ranged in height from 2 to 18 cm (1- to 4-leaf stage) for postemergence treatments. Treated plants and controls were maintained in a greenhouse for 13 to 15 days, after which time all species were compared to controls and visually evaluated. Plant response ratings, summarized in Table C, are based on a scale of 0 to 100 where 0 is no effect and 100 is complete control. A dash (-) response means no test result.

galium = assay: Test C postemergence; type: in vivo, Galium aparine; conditions: for Plant response rating, Galium / Galium plant response rating: scale 0 to 100 (0 no effect, 100 complete control); for Galium plant response rating: 31 g ai/ha
From the text: as §3, §4

morningglory [4] = assay: Test C postemergence; type: in vivo, Ipomoea coccinea; conditions: for Plant response rating, Morningglory / Morningglory plant response rating: scale 0 to 100 (0 no effect, 100 complete control); for Morningglory plant response rating: 31 g ai/ha
From the text: as §3, §4

velvetleaf [5] = assay: Test C preemergence; type: in vivo, Abutilon theophrasti; conditions: for Velvetleaf plant response rating: preemergence
Outline: (§5)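 Seeds are planted in blended loam soil and sand and treated preemergence, while seedlings in a peat moss/vermiculite medium receive postemergence sprays at 2 to 18 cm height. All plants stay in the greenhouse for 13 to 15 days before visual comparison with controls on a 0–100 scale.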

pigweed = assay: Test C preemergence; type: in vivo, Amaranthus retroflexus; conditions: for Pigweed plant response rating: preemergence
Outline: as §5

large (Lg) crabgrass = assay: Test A postemergence; type: in vivo, Digitaria sanguinalis; conditions: 0 to 100 scale where 0 is no effect and 100 is complete control
Outline: as §1

wheat, winter = assay: Test C preemergence; type: in vivo, Triticum aestivum; conditions: for Wheat plant response rating: preemergence
Outline: as §5

morningglory [6] = assay: Test A postemergence; type: in vivo, Ipomoea spp.; conditions: 0 to 100 scale where 0 is no effect and 100 is complete control
Outline: as §1

yellow nutsedge = assay: Test C preemergence; type: in vivo, Cyperus esculentus; conditions: for Nutsedge, Yellow plant response rating: preemergence
Outline: as §5

giant foxtail [7] = assay: Test C preemergence; type: in vivo, Setaria faberii; conditions: for Foxtail, Giant plant response rating: preemergence
Outline: as §5

velvetleaf [8] = assay: Test A postemergence; type: in vivo, Abutilon theophrasti; conditions: 0 to 100 scale where 0 is no effect and 100 is complete control
Outline: as §1

[9] = 31 g ai/ha, 0 to 100 scale, 0 no effect, 100 complete control
[10] = 125 g ai/ha, 0 to 100 scale where 0 is no effect and 100 is complete control
[11] = 16 g ai/ha, postemergence, 0 is no effect, 100 is complete control
[12] = 125 g ai/ha, postemergence, visual rating
[13] = 1000 g ai/ha, 0 to 100 scale, 0 no effect, 100 complete control
[14] = postemergence, visual rating, 13 to 15 days
[15] = 500 g ai/ha, 0 to 100 scale where 0 is no effect and 100 is complete control
[16] = 16 g ai/ha, scale 0 to 100 (0 no effect, 100 complete control)
[17] = 125 g ai/ha, scale 0 (no effect) to 100 (complete control)
[18] = Preemergence, 62 g ai/ha, scale 0 to 100, 0 no effect, 100 complete control
[19] = 125 g ai/ha, 0 to 100 scale, 0 no effect, 100 complete control
[20] = Postemergence, 62 g ai/ha, 13 to 15 days

FCc1cccc(Oc2ncc(Br)cn2)c1-n1cc(C(F)(F)F)cn1 [Compound 120]
Plant response rating, Corn (corn; [9]): 10 | Plant response rating, Corn (corn; [10]): 50 | Plant response rating, Foxtail, Giant (giant foxtail [1]; [9]): 20 | Plant response rating, Foxtail, Giant (giant foxtail [1]; [10]): 70 | Plant response rating, Ducksalad (Heteranthera limosa): 95 | Plant response rating, Barnyardgrass (barnyardgrass [2]; [9]): 20 | Plant response rating, Barnyardgrass (barnyardgrass [2]; [10]): 80 | Plant response rating, Barnyardgrass (barnyardgrass [3]): 0 | Plant response rating (0 to 100), Chickweed (chickweed; [11]): 40 | Plant response rating, Chickweed (chickweed; [12]): 80 | Plant response rating, Chickweed (chickweed; Postemergence, 62 g ai/ha): 70 | Plant response rating (0 to 100), Galium (galium; [11]): 30 | Plant response rating, Galium (galium; [12]): 60 | Plant response rating, Galium (galium; Postemergence, 62 g ai/ha): 30 | Plant response rating (0 to 100), Morningglory (morningglory [4]; [11]): 20 | Plant response rating, Morningglory (morningglory [4]; [12]): 80 | Plant response rating, Morningglory (morningglory [4]; Postemergence, 62 g ai/ha): 35

Fc1cccc(Oc2ncc(Cl)cn2)c1-n1cc(C2CC2)nn1 [Compound 155]
Plant response rating, Corn (corn; [13]): 100 | Plant response rating, Foxtail, Giant (giant foxtail [1]; [13]): 100 | Plant response rating, Ducksalad (Heteranthera limosa): 100 | Plant response rating, Barnyardgrass (barnyardgrass [2]; [13]): 100 | Plant response rating, Barnyardgrass (barnyardgrass [3]): 40 | Plant response rating (0 to 100), Chickweed (chickweed; [11]): 90 | Chickweed plant response rating (chickweed; [14]): 80 | Plant response rating, Chickweed (chickweed; [12]): 90 | Plant response rating, Chickweed (chickweed; Postemergence, 62 g ai/ha): 75 | Plant response rating (0 to 100), Galium (galium; [11]): 75 | Galium plant response rating (galium; [14]): 95 | Plant response rating, Galium (galium; [12]): 100 | Plant response rating, Galium (galium; Postemergence, 62 g ai/ha): 98 | Plant response rating (0 to 100), Morningglory (morningglory [4]; [11]): 70 | Morningglory plant response rating (morningglory [4]; [14]): 80 | Plant response rating, Morningglory (morningglory [4]; [12]): 85 | Plant response rating, Morningglory (morningglory [4]; Postemergence, 62 g ai/ha): 80

CCOc1cnn(-c2ccccc2Oc2ncc(Cl)cn2)c1 [Compound 187]
Corn plant response rating (corn; [10]): 10 | Plant response rating, Corn (corn; [15]): 70 | Foxtail, Giant plant response rating (giant foxtail [1]; [10]): 60 | Plant response rating, Foxtail, Giant (giant foxtail [1]; [15]): 90 | Velvetleaf plant response rating (velvetleaf [5]; [16]): 25 | Velvetleaf plant response rating (velvetleaf [5]; [17]): 100 | Plant response rating, Velvetleaf (velvetleaf [5]; [18]): 95 | Pigweed plant response rating (pigweed; [16]): 45 | Pigweed plant response rating (pigweed; [17]): 100 | Plant response rating, Pigweed (pigweed; [18]): 90 | Plant response rating, Ducksalad (Heteranthera limosa): 65 | Barnyardgrass plant response rating (barnyardgrass [2]; [10]): 80 | Plant response rating, Barnyardgrass (barnyardgrass [2]; [15]): 90 | Crabgrass, Large plant response rating (large (Lg) crabgrass; 125 g ai/ha): 60 | Plant response rating, Crabgrass, Large (large (Lg) crabgrass; 500 g ai/ha): 100 | Wheat plant response rating (wheat, winter; [16]): 0 | Wheat plant response rating (wheat, winter; [17]): 0 | Plant response rating, Wheat (wheat, winter; [18]): 0 | Morningglory plant response rating (morningglory [6]; 125 g ai/ha): 70 | Plant response rating, Morningglory (morningglory [6]; 500 g ai/ha): 100 | Plant response rating, Barnyardgrass (barnyardgrass [3]): 0 | Nutsedge, Yellow plant response rating (yellow nutsedge; [16]): 0 | Nutsedge, Yellow plant response rating (yellow nutsedge; [17]): 5 | Plant response rating, Nutsedge, Yellow (yellow nutsedge; [18]): 5 | Foxtail, Giant plant response rating (giant foxtail [7]; [16]): 0 | Foxtail, Giant plant response rating (giant foxtail [7]; [17]): 85 | Plant response rating, Foxtail, Giant (giant foxtail [7]; [18]): 85 | Velvetleaf plant response rating (velvetleaf [8]; 125 g ai/ha): 100 | Plant response rating, Velvetleaf (velvetleaf [8]; 500 g ai/ha): 100

N#Cc1cccc(Oc2ncc(Cl)cn2)c1-n1cc(-n2ccc(C(F)(F)F)n2)cn1 [Compound 284]
Plant response rating, Corn (corn; [19]): 20 | Plant response rating, Corn (corn; [15]): 40 | Plant response rating, Foxtail, Giant (giant foxtail [1]; [19]): 90 | Plant response rating, Foxtail, Giant (giant foxtail [1]; [15]): 90 | Plant response rating, Ducksalad (Heteranthera limosa): 80 | Plant response rating, Barnyardgrass (barnyardgrass [2]; [19]): 30 | Plant response rating, Barnyardgrass (barnyardgrass [2]; [15]): 90 | Plant response rating, Barnyardgrass (barnyardgrass [3]): 0 | Chickweed plant response rating (chickweed; [14]): 65 | Plant response rating, Chickweed (chickweed; [12]): 100 | Plant response rating (0 to 100), Chickweed (chickweed; 250 g ai/ha, postemergence): 100 | Plant response rating, Chickweed (chickweed; [20]): 100 | Galium plant response rating (galium; [14]): 100 | Plant response rating, Galium (galium; [12]): 85 | Plant response rating (0 to 100), Galium (galium; 250 g ai/ha, postemergence): 100 | Plant response rating, Galium (galium; [20]): 85 | Morningglory plant response rating (morningglory [4]; [14]): 70 | Plant response rating, Morningglory (morningglory [4]; [12]): 85 | Plant response rating (0 to 100), Morningglory (morningglory [4]; 250 g ai/ha, postemergence): 100 | Plant response rating, Morningglory (morningglory [4]; [20]): 100
